Source: ChEMBL document CHEMBL4219089, “Targeting RORs nuclear receptors by novel synthetic steroidal inverse agonists for autoimmune disorders” (Bioorg Med Chem, 2018)
pIC50: −log10 of the molar value.

Columns and labels:
HepG2 [1] = assay: Cytotoxicity against human HepG2 cells assessed as effect on cell viability at 6.25 uM after 24 hrs by MTT assay; type: cell-based; conditions: hepg2, 24 h
HEK293 [2] = assay: Cytotoxicity against HEK293 cells assessed as effect on cell viability at 10 to 20 uM after 24 hrs by MTT assay; type: cell-based; conditions: human, hek293, 24 h
HEK293 [3] = assay: Cell cycle arrest in HEK293 cells expressing GAL4-fused RORgammat at 10 to 20 uM after 24 hrs by propidium iodide staining based flow cytometric method; type: ADME; conditions: human, hek293, 24 h
HepG2 [4] = assay: Cytotoxicity against human HepG2 cells assessed as effect on cell viability at 6.25 to 50 uM after 24 hrs by MTT assay; type: cell-based; conditions: hepg2, 24 h
Estrogen receptor [5] = biological target: T1, Estrogen receptor (Homo sapiens, UniProt P03372); assay: Estrogenic activity at estrogen receptor in human MCF7 cells assessed as increase in CXCL12 gene expression at 2 uM after 24 hrs by qRT-PCR analysis; type: ADME, cell-based; conditions: mcf7, 24 h
T1 sequence (P03372 whole entry): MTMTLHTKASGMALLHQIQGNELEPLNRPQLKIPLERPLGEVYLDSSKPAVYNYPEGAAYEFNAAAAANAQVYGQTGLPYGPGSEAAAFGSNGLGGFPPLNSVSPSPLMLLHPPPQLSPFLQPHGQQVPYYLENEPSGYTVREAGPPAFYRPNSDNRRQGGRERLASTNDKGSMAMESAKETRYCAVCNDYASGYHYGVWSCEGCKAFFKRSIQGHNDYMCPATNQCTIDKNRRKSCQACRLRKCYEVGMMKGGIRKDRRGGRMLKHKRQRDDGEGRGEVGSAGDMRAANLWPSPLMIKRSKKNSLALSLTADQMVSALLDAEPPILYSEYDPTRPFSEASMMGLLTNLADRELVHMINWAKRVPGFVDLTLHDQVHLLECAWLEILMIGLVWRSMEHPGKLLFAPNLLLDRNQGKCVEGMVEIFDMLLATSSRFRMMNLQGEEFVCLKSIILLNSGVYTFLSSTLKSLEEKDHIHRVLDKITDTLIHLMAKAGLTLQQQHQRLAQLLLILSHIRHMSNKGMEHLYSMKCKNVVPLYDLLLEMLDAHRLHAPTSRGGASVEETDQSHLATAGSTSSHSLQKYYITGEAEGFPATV

HEK293 [6] = assay: Cytotoxicity against HEK293 cells expressing GAL4-fused RORgammat assessed as effect on cell viability at 10 to 20 uM after 24 hrs by MTT assay; type: cell-based; conditions: human, hek293, 24 h
HEK293 [7] = assay: Cell cycle arrest in HEK293 cells at 10 to 20 uM after 24 hrs by propidium iodide staining based flow cytometric method; conditions: human, hek293, 24 h
Estrogen receptor [8] = biological target: T1, Estrogen receptor; assay: Estrogenic activity at estrogen receptor in human MCF7 cells assessed as increase in GREB1 gene expression at 2 uM after 24 hrs by qRT-PCR analysis; type: ADME, cell-based; conditions: mcf7, 24 h
HepG2 [9] = assay: Cell cycle arrest in human HepG2 cells at 10 to 20 uM after 24 hrs by propidium iodide staining based flow cytometric analysis; type: ADME; conditions: hepg2, 24 h
[10] = biological target: T2, Nuclear receptor ROR-gamma (Homo sapiens, UniProt P51449); assay: (§1) Inverse agonist activity at Gal4-fused RORgammat LBD (unknown origin) expressed in HEK293 cells measured after 48 hrs post transfection by dual-luciferase reporter gene assay; type: cell-based
T2 sequence (P51449 whole entry): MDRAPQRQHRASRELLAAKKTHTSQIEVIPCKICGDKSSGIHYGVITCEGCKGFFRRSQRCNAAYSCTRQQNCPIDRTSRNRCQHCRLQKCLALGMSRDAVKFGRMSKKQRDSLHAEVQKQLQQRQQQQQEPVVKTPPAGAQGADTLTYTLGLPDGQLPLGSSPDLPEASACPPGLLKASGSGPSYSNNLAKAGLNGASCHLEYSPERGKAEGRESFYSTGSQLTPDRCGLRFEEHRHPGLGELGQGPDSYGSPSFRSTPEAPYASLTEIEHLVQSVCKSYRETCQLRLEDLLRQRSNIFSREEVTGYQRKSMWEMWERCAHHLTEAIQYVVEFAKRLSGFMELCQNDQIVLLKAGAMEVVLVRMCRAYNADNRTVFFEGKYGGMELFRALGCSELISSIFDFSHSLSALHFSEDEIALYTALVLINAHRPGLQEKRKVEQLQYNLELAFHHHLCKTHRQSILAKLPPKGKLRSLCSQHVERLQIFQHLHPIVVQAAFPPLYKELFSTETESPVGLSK

[11] = biological target: T3, Nuclear receptor ROR-gamma (Homo sapiens) (UniProt P51449); assay: as §1; type: cell-based
T3 sequence (whole entry): T2 sequence (P51449 whole entry)

HepG2 [12] = assay: Cytotoxicity against human HepG2 cells assessed as effect on cell viability at 25 to 50 uM after 24 hrs by MTT assay; type: cell-based; conditions: hepg2, 24 h

| Structure (SMILES) | Activity (Estrogen receptor [5]) | Activity (Estrogen receptor [8]) | pIC50 [10] | Activity [11] | Activity (HepG2 [1]) | Activity (HEK293 [2]) | Activity (HEK293 [3]) | Activity (HepG2 [4]) | Activity (HEK293 [6]) | Activity (HEK293 [7]) | Activity (HepG2 [9]) | Activity (HepG2 [12]) |
| --- | --- | --- | --- | --- | --- | --- | --- | --- | --- | --- | --- | --- |
| C[C@]12CC[C@@H]3c4cc(-c5ccc(-c6ccccc6)cc5)c(O)cc4CC[C@H]3[C@@H]1CC(C(=O)O)C2O (stereo not given in full) | – | – | – | – | Toxic | – | – | – | – | – | – | – |
| C[C@]12CC[C@@H]3c4cc(-c5ccccc5)c(O)cc4CC[C@H]3[C@@H]1CC(C(=O)O)C2O (stereo not given in full) | – | – | – | – | Toxic | – | – | – | – | – | – | – |
| C[C@]12CC[C@@H]3c4cc(-c5cccc6c5oc5ccccc56)c(O)cc4CC[C@H]3[C@@H]1CC(C(=O)O)C2O (stereo not given in full) | – | – | 5.33 | Dose-dependent effect | – | Non-Toxic | Non-Toxic | Non-Toxic | Non-Toxic | Non-Toxic | Non-Toxic | – |

Further lines, with some results ahead:

| Activity (Estrogen receptor [5]) | Activity (Estrogen receptor [8]) | pIC50 [10] | Activity [11] | Structure (SMILES) | Activity (HepG2 [1]) | Activity (HEK293 [2]) | Activity (HEK293 [3]) | Activity (HepG2 [4]) | Activity (HEK293 [6]) | Activity (HEK293 [7]) | Activity (HepG2 [9]) | Activity (HepG2 [12]) |
| --- | --- | --- | --- | --- | --- | --- | --- | --- | --- | --- | --- | --- |
| Not Active | Not Active | 5.17 | Dose-dependent effect | COc1cc2c(cc1C13CC4CC(CC(C4)C1)C3)[C@H]1CC[C@]3(C)C=C(C(=O)O)C[C@H]3[C@@H]1CC2 | – | Non-Toxic | Non-Toxic | Non-Toxic | Non-Toxic | Non-Toxic | Non-Toxic | – |
| Not Active | Not Active | 5.36 | Dose-dependent effect | C[C@@]12C=C(C(=O)O)C[C@H]1[C@@H]1CCc3cc(O)c(C(=O)c4ccccc4)cc3[C@H]1CC2 | – | Non-Toxic | Non-Toxic | – | Non-Toxic | Non-Toxic | Non-Toxic | Toxic |
| Active | Active | 5.19 | Dose-dependent effect | C[C@@]12C=C(C(=O)O)C[C@H]1[C@@H]1CCc3cc(O)c(C45CC6CC(CC(C6)C4)C5)cc3[C@H]1CC2 | – | Non-Toxic | Non-Toxic | Non-Toxic | Non-Toxic | Non-Toxic | Non-Toxic | – |
